In patent publication US20210253562A1, “ACYLSUFONAMIDE COMPOUNDS USEFUL AS EP3 RECEPTOR ANTAGONISTS” (Janssen Pharmaceutica NV, priority 2018, published 2021):

Assays:
[1] = target: T1, EP3 membrane (EP3 receptor) (Homo sapiens, UniProt P43115); test: [3H]-PGE2 binding; EP3 competition binding (SPA)
T1 construct: purchased Millipore HTS092M
T1 sequence (P43115 1-390): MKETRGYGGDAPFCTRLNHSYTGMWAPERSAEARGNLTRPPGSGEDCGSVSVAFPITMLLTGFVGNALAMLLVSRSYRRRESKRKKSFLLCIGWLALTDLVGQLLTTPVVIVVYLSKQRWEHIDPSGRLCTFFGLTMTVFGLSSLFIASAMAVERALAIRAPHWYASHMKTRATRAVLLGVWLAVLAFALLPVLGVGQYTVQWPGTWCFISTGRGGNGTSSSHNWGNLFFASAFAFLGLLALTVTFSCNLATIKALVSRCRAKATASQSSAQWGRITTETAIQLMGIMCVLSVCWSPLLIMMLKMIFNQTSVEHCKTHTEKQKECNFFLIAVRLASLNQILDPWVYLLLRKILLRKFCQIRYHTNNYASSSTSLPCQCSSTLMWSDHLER
Procedure: Biological Example 1: [3H]-PGE2 Binding
EP3 competition binding was determined using the following materials and experimental conditions: • Beads=Perkin Elmer RPNQ0001 • [3H]PGE2=Perkin Elmer NET428025UC • 384-well plate=Perkin Elmer 6007290 • EP3 membrane=Millipore HTS092M • Membrane concentration=2 μg/well • Beads concentration=0.25 mg/well • [3H]-PGE2=2 nM; DMSO—0.1% • Binding buffer=50 mM Tris, 10 mM MgCl2, 1 mM EDTA, PH 7.4.
The reaction system was prepared by mixing 5 μl of unlabeled compound; 5 μl of diluted [3H]-PGE2; 5 μl of diluted membrane; and 15 μl of SPA beads dissolved in binding buffer (adding in the following sequence: Unlabeled compound, [3H]-PGE2, Membrane and Beads).
The binding buffer was removed from refrigeration (@ 4° C.) and allowed to warm to room temperature. Test compound (@ stock concentration of […] in DMSO) was serial dilutes (1:3) with 100% DMSO using Echo plate. Diluted test compound (30 nL) was dispensed to the 384-well assay plate (using Echo 550 Labcyte System). To each well was then added assay buffer (5 μl) and each well was spun. Beads were weighed out, dissolved in assay buffer to a concentration of 0.25 mg/15 μl. Original membrane was diluted with assay buffer to a concentration of 2 μg/5 μl. Original [3H]-PGE2 with diluted with assay buffer to a concentration of 12 nM. To each test well were then added diluted [3H]-PGE2 (5 μl), diluted membrane (5 μl), and dissolved beads (15 μl). The plate was equilibrated at room temperature on a plate shaker for 2 hours and then read with a TOPCOUNT scintillation plate reader. Results were analyzed using a Prism program with non-linear regression, one-site fit for Ki.

[2] = target: T2, CHO cells over-expressing the EP3 receptor (Homo sapiens, UniProt P43115); test: CHO cell cAMP assay; EP3 cAMP antagonist dose response (sulprostone reference), HTRF; type: cell-based; conditions: sulprostone 700 nM (EC80) and FSK 2 μM (EC70); read-out: CHO_cAMP IC50
T2 construct: expressed in transfected cells; host or cells: CHO cells
T2 sequence (P43115 1-390): T1 sequence (P43115 1-390)
Procedure: Biological Example 2: CHO Cell cAMP Assay
This assay monitored the cAMP generation in CHO cells over-expressing the EP3 receptor in the presence or absence of antagonist stimulated with Forskolin (FSK, CAS No. 66428-89-5) and a known EP3 Agonist (sulprostone, CAS No. 60325-46-4). For detection, a homogeneous competitive immunoassay (Time Resolved Fluorescence Energy Transfer (hTR-FRET)) was used.
Cells (6K cells per well) were plated in Poly-D-Lysine coated plates the day before the assay was to be run and were incubated at 37° C. One hour before the assay the media was removed and replaced with assay buffer (500 mL HBSS (+Ca)+2.5 mL 1M HEPES+6.66 mL 7.5% BSA) (starved at 37° C.). At the start of the assay the buffer was removed from the cells and replaced with buffer containing test compound(s). Sulprostone at an EC80 dose (700 nM) and FSK at an EC70 dose (2 μM) were added to initiate the reaction (37° C. for 30 minutes).
FSK increases cAMP production and sulprostone decreases cAMP production produced by FSK. In this assay, EP3 antagonists will increase the cAMP to the level of cAMP generated by FSK alone.
The reaction was terminated with the addition of cAMP detection reagents (labeled cAMP and labeled cAMP antibody in lysis buffer (HTRF reagent, which utilizes a cryptate-labeled anti-cAMP and d2-labeled cAMP-d2 is an HTRF acceptor fluorophore)). Approximately one hour later the plates were read on an Envision (Perkin Elmer) in HTRF mode. Well results were calculated based on a ratio of counts at 665 nm and 615 nm (data output was a calculation of the ratio: (read @665 nm/read @ 615 nm)*1000. For test compounds dosed serially, well results were converted to nM cAMP using a cAMP standard run on each plate. nM cAMP from a set of wells dosed with test compound(s) were plotted. nM cAMP was calculated for each well from a standard curve located on each plate (P1-12 and P13-24) by first calculating the slope and deriving the intercept(b):
[formula] NScAMP_s tan dard_cruve=m(nM cAMP_s tan dard_curve)+b
NSP, NSN, NSsample were converted to nM cAMP using the following equation: […]
IC50 values were determined from a […] (Hill equation) of a single 11-point compound dosing. A best-fit curve was determined by the minimum sum of squares method plotting cAMP produced vs compound concentration.

SMILES	Ki [1] [nM]	IC50 [2] [nM]
O=C(NC/C(F)=C1\CCCc2onc(-c3ccc(Cl)cc3)c21)NS(=O)(=O)c1ccc(Cl)cc1 [Compound #97, (Z)-4-chloro-N-((2-(3-(4-chlorophenyl)-6,7-dihydrobenzo[d]isoxazol-4(5H)-ylidene)-2-fluoroethyl)carbamoyl)benzenesulfonamide]	4900	> 20000
O=C(NS(=O)(=O)c1ccc(Cl)cc1)OC/C=C1\c2c(cnn2Cc2ccc(Cl)cc2Cl)CCC1(F)F [Compound #81, (E)-2-(1-(2,4-dichlorobenzyl)-6,6-difluoro-1,4,5,6-tetrahydro-7H-indazol-7-ylidene)ethyl ((4-chlorophenyl)sulfonyl)carbamate]	> 10000	14100
COc1ccc(F)cc1S(=O)(=O)NC(=O)NC/C(F)=C1\CCCc2cnn(-c3ccc4ccccc4c3)c21 [Compound #113, (Z)-5-fluoro-N-((2-fluoro-2-(1-(naphthalen-2-yl)-1,4,5,6-tetrahydro-7H-indazol-7-ylidene)ethyl)carbamoyl)-2-methoxybenzenesulfonamide]	4100	6900
COc1ccc(S(=O)(=O)NC(=O)NC/C=C2\COCc3cnn(Cc4ccc(Cl)cc4Cl)c32)cc1 [Compound #62, (Z)—N-((2-(1-(2,4-dichlorobenzyl)-1,4-dihydropyrano[4,3-c]pyrazol-7(6H)-ylidene)ethyl)carbamoyl)-4-methoxybenzenesulfonamide]	63	245
O=C(NS(=O)(=O)c1cc(Cl)c(Cl)s1)OC/C(F)=C1/CCCc2cnn(Cc3ccc(Cl)cc3Cl)c21 [Compound #35, (E)-2-(1-(2,4-dichlorobenzyl)-1,4,5,6-tetrahydro-7H-indazol-7-ylidene)-2-fluoroethyl ((4,5-dichlorothiophen-2-yl)sulfonyl)carbamate]	542	2800
O=C(NS(=O)(=O)c1ccc(Cl)cc1)OC/C=C1/c2c(cnn2Cc2ccc(Cl)cc2Cl)CCC1(F)F [Compound #82, (Z)-2-(1-(2,4-dichlorobenzyl)-6,6-difluoro-1,4,5,6-tetrahydro-7H-indazol-7-ylidene)ethyl ((4-chlorophenyl)sulfonyl)carbamate]	106	2600
O=C(NC/C(F)=C1/CCCc2onc(-c3ccc(Cl)cc3)c21)NS(=O)(=O)c1ccc(Cl)cc1 [Compound #96, (E)-4-chloro-N-((2-(3-(4-chlorophenyl)-6,7-dihydrobenzo[d]isoxazol-4(5H)-ylidene)-2-fluoroethyl)carbamoyl)benzenesulfonamide]	> 10000	> 20000
O=C(C/C=C1\CCCc2cnn(Cc3ccc(Cl)cc3Cl)c21)NS(=O)(=O)c1nc2ccccc2s1 [Compound #21]	58	330
Cn1nccc1S(=O)(=O)NC(=O)NC/C(F)=C1\CCCc2cnn(Cc3ccc(Cl)cc3Cl)c21 [Compound #168, (Z)—N-((2-(1-(2,4-dichlorobenzyl)-1,4,5,6-tetrahydro-7H-indazol-7-ylidene)-2-fluoroethyl)carbamoyl)-1-methyl-1H-pyrazole-5-sulfonamide]	232	
CN1CCC(n2ncc3c2/C(=C/CNC(=O)NS(=O)(=O)c2cc(Cl)c(Cl)s2)CCC3)CC1 [Compound #151, (E)-4,5-dichloro-N-((2-(1-(1-methylpiperidin-4-yl)-1,4,5,6-tetrahydro-7H-indazol-7-ylidene)ethyl)carbamoyl)thiophene-2-sulfonamide]	102	
CC(C)n1cc(S(=O)(=O)NC(=O)NC/C=C2\CCCc3cnn(Cc4ccc(Cl)cc4Cl)c32)cn1 [Compound #173, (E)-N-((2-(1-(2,4-dichlorobenzyl)-1,4,5,6-tetrahydro-7H-indazol-7-ylidene)ethyl)carbamoyl)-1-isopropyl-1H-pyrazole-4-sulfonamide]	59	

Compounds with a lower Ki [1], results first:

Ki [1] [nM]	IC50 [2] [nM]	SMILES
30		Cn1nc(Cc2ccc(Cl)cc2Cl)c2c1COC/C2=C(/F)CNC(=O)NS(=O)(=O)c1cc(Cl)c(Cl)s1 [Compound #186, (E)-4,5-dichloro-N-((2-(3-(2,4-dichlorobenzyl)-1-methyl-1,7-dihydropyrano[3,4-c]pyrazol-4(5H)-ylidene)-2-fluoroethyl)carbamoyl)thiophene-2-sulfonamide]
18	34	O=C(NC/C(F)=C1\CCCc2cnn(Cc3ccc(Cl)cc3Cl)c21)NS(=O)(=O)c1cccc(Cl)c1 [Compound #91, (Z)-3-chloro-N-((2-(1-(2,4-dichlorobenzyl)-1,4,5,6-tetrahydro-7H-indazol-7-ylidene)-2-fluoroethyl)carbamoyl)benzenesulfonamide]
6	9	COc1ccc(Br)cc1S(=O)(=O)NC(=O)CC/C=C1\CCCc2cnn(Cc3ccc(Cl)cc3Cl)c21 [Compound #41, (E)-N-((5-bromo-2-methoxyphenyl)sulfonyl)-4-(1-(2,4-dichlorobenzyl)-1,4,5,6-tetrahydro-7H-indazol-7-ylidene)butanamide]
2	4	O=C(NC/C=C1\CCCn2nnc(-c3ccc(C(F)(F)F)cc3)c21)NS(=O)(=O)c1cc(Cl)c(Cl)s1 [Compound #155, (E)-4,5-dichloro-N-((2-(3-(4-(trifluoromethyl)phenyl)-6,7-dihydro-[1,2,3]triazolo[1,5-a]pyridin-4(5H)-ylidene)ethyl)carbamoyl)thiophene-2-sulfonamide]
1	3	O=C(CC/C=C1\CCCc2cnn(-c3cccc(-c4ccccc4)c3)c21)NS(=O)(=O)c1cc(Cl)c(Cl)s1 [Compound #52, (E)-4-(1-([1,1′-biphenyl]-3-yl)-1,4,5,6-tetrahydro-7H-indazol-7-ylidene)-N-((4,5-dichlorothiophen-2-yl)sulfonyl)butanamide]
1	5	O=C(NS(=O)(=O)c1cc(Cl)c(Cl)s1)OC/C=C1\CCCc2cnn(Cc3ccc(Cl)cc3Cl)c21 [Compound #5, (E)-2-(1-(2,4-dichlorobenzyl)-1,4,5,6-tetrahydro-7H-indazol-7-ylidene)ethyl ((4,5-dichlorothiophen-2-yl)sulfonyl)carbamate]
1	4	O=C(NC/C=C1\CCCc2cnn(-c3ccc(Br)cc3)c21)NS(=O)(=O)c1cc(Cl)c(Cl)s1 [Compound #75, (E)-N-((2-(1-(4-bromophenyl)-1,4,5,6-tetrahydro-7H-indazol-7-ylidene)ethyl)carbamoyl)-4,5-dichlorothiophene-2-sulfonamide]
1		COc1nc2ccc(S(=O)(=O)NC(=O)NC/C=C3\CCCc4cnn(Cc5ccc(Cl)cc5Cl)c43)cc2o1 [Compound #177, (E)-N-((2-(1-(2,4-dichlorobenzyl)-1,4,5,6-tetrahydro-7H-indazol-7-ylidene)ethyl)carbamoyl)-2-methoxybenzo[d]oxazole-6-sulfonamide]
